From US20230069886A1, “AROMATIC SULPHONAMIDES DERIVATIVES THAT INHIBITS PDI A3, THEIR SYNTHESIS AND USE” (Uniwersytet Jagiellonski, priority 2020, published 2023) come the findings set out here.

Molecules are shown by their SMILES.

System in one data set: not given
Assay: not given
Conditions: not given
Turning to `COC(=O)C1CN1S(=O)(=O)c1ccc2oc(=O)ccc2c1` (stereo not shown) [Compound C-3355, Methyl 1-(2-oxochromen-6-yl)sulfonylaziridine-2-carboxylate], the melting point (commonly the temperature of the solid-liquid transition) was in the range of 42 to 44 °C.
For the molecule `CNc1ccc2cc(S(=O)(=O)N3CC3C(=O)OC)ccc2c1Cl` (stereo not shown) [Compound C-3393, Methyl 1-[[5-chloro-6-(methylamino)-2-naphthyl]sulfonyl]aziridine-2-carboxylate], the melting point was 170 to 172 °C.
On the same count and under the same terms, under `COC(=O)C1CN1S(=O)(=O)c1ccc([N+](=O)[O-])cc1` (stereo not shown) [Compound C-3212, Methyl 1-(4-nitrophenyl)sulfonylaziridine-2-carboxylate] stands 106 to 108 °C.
The same measure, in the same setting: under `NC(=O)C1CN1S(=O)(=O)c1ccc(N)cc1` (stereo not shown) [Compound C-3218, 1-(4-Aminophenyl)sulfonylaziridine-2-carboxamide] stands 139 to 141 °C.
Still for that read-out and setting: with `COC(=O)C1CN1S(=O)(=O)c1ccc2[nH]c(=O)ccc2c1` (stereo not shown) [Compound C-3350, Methyl 1-[(2-oxo-1H-quinolin-6-yl)sulfonyl]aziridine-2-carboxylate] the figure was 139 to 141 °C; with `NC(=O)C1CN1S(=O)(=O)c1cccnc1` (stereo not shown) [Compound C-3562, 1-(3-pyridylsulfonyl)aziridine-2-carboxamide], 147 to 149 °C.

A further data set deals with T1, PDI A3 (Homo sapiens, UniProt P30101).
T1 construct: purchased Mybiosource; host or cells: E. coli
T1 sequence (P30101 25-505): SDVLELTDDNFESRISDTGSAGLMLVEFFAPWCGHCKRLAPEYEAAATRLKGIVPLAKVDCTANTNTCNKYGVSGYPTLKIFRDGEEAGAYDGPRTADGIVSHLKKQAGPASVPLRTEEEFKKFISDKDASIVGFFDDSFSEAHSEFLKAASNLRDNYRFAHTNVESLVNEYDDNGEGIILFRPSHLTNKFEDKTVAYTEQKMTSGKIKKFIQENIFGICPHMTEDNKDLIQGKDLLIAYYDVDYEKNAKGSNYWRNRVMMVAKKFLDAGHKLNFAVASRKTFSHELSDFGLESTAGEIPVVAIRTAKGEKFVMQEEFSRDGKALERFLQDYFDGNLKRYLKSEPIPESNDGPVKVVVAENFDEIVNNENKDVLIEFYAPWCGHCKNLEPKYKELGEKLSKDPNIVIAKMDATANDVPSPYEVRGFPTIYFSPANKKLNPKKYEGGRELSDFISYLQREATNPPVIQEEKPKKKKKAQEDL
Nature of the data set: PDI A3 inhibition, insulin turbidimetric assay. It counts as biochemical. The conditions noted are these: 10 ug/ml PDI A3, incubated 60 min at 37° C., turbidity at 650 nm; read-out: Inhibition of PDI A3 (EC 50). How it is done: The inhibitory effects compounds of invention on activity of PDIA3 was assess based on the insulin turbidimetric assay. Enzymatic activity of PDIA3 was confirmed by measuring the turbidity increase at 650 nm due to insulin reduction. The assay mixture was prepared by addition 10 ug/ml PDI A3 (E. coli recombinant protein; Mybiosource), […] phosphate buffer (pH7.6), 1 mM EDTA, 0.087 mM DTT and with or without tested compound and was incubated for 60 min, at 37° C. Reaction was started by addition of insulin and DTT. Final concentration of insulin and DTT in assay mixture were 0.15 mMv and 0.174 mMv, respectively. Turbidity was detected at 650 nm against reference samples without PDJs. The measurements were performed at 650 nm using 120-s recordings.
As for `CN(C)C(=O)C1CN1S(=O)(=O)c1ccc(N(C)C)c2ccccc12` (stereo not shown) [Compound C-3385, 1-[[4-(Dimethylamino)-1-naphthyl]sulfonyl]-N,N-dimethylaziridine-2-carboxamide], the EC50 was 11.1 µM.
Same read-out and setting: with `COC(=O)C1CN1S(=O)(=O)c1cccnc1` (stereo not shown) [Compound C-3559, Methyl 1-(3-pyridylsulfonyl)aziridine-2-carboxylate] the figure was 18.6 µM.
The same measure, in the same setting: under `CCCCCCc1ccc(S(=O)(=O)N2CC2C(=O)N2CCCC2)cc1` (stereo not shown) [Compound C-3511, [1-(4-Hexylphenyl)sulfonylaziridin-2-yl]-pyrrolidin-1-yl-methanone] stands 102 µM; under `COC(=O)C1CN1S(=O)(=O)c1ccc2oc(=O)ccc2c1` (stereo not shown) [Compound C-3355, Methyl 1-(2-oxochromen-6-yl)sulfonylaziridine-2-carboxylate], 61 µM; under `CNc1ccc2cc(S(=O)(=O)N3CC3C(=O)OC)ccc2c1Cl` (stereo not shown) [Compound C-3393, Methyl 1-[[5-chloro-6-(methylamino)-2-naphthyl]sulfonyl]aziridine-2-carboxylate], 27 µM.
The same measure, in the same setting: under `Cc1ccc(S(=O)(=O)N2CC2C#N)cc1` (stereo not shown) [Compound C-3314, 1-(p-Tolylsulfonyl)aziridine-2-carbonitrile] stands 24 µM.
For `CN(C)C(=O)C1CN1S(=O)(=O)c1ccc(N(C)C)cc1` (stereo not shown) [Compound C-3357, 1-[4-(Dimethylamino)phenyl]sulfonyl-N,N-dimethyl-aziridine-2-carboxamide], the EC50 is above 200 µM.
As to `COC(=O)C1CN1S(=O)(=O)c1ccc([N+](=O)[O-])cc1` (stereo not shown) [Compound C-3212, Methyl 1-(4-nitrophenyl)sulfonylaziridine-2-carboxylate], the EC50 came to 32 µM.
Same read-out and setting: under `COC(=O)[C@@H]1CN1S(=O)(=O)c1ccc(C)cc1` (stereo partly drawn) [Compound C-3535, Methyl (2S)-1-(p-tolylsulfonyl)aziridine-2-carboxylate] stands 6.8 µM; under `CC(C)(C)c1ccc(S(=O)(=O)N2CC2C(N)=O)cc1` (stereo not shown) [Compound C-3591, 1-(4-tert-Butylphenyl)sulfonylaziridine-2-carboxamide], 29 µM.
Same read-out and setting: under `CCCCCc1ccc(S(=O)(=O)N2CC2C(=O)OC)cc1` (stereo not shown) [Compound C-3281, Methyl 1-(4-pentylphenyl)sulfonylaziridine-2-carboxylate] stands above 200 µM; under `COC(=O)C1CN1S(=O)(=O)c1ccc(C(F)(F)F)cc1` (stereo not shown) [Compound C-3256, Methyl 1-[4-(trifluoromethyl)phenyl]sulfonylaziridine-2-carboxylate], above 200 µM.
In the case of `CN(C)C(=O)C1CN1S(=O)(=O)c1ccc2cc(N(C)C)ccc2c1` (stereo not shown) [Compound C-3398, 1-[[6-(Dimethylamino)-2-naphthyl]sulfonyl]-N,N-dimethylaziridine-2-carboxamide], the EC50 was 10.5 µM.
With `CCCCc1ccc(S(=O)(=O)N2CC2C(C)=O)cc1` (stereo not shown) [Compound C-3272, 1-[1-(4-Butylphenyl)sulfonylaziridin-2-yl]ethanone], the EC50 was 43 µM.
As for `COC(=O)C1CN1S(=O)(=O)c1cccc(C(F)(F)F)c1` (stereo not shown) [Compound C-3305, Methyl 1-[3-(trifluoromethyl)phenyl]sulfonylaziridine-2-carboxylate], the EC50 was above 200 µM.
Same read-out and setting: with `COC(=O)C1CN1S(=O)(=O)c1ccc(C)cc1F` (stereo not shown) [Compound C-3297, Methyl 1-(2-fluoro-4-methyl-phenyl)sulfonylaziridine-2-carboxylate] the figure was above 200 µM; with `COC(=O)C1CN1S(=O)(=O)c1cccc2ccccc12` (stereo not shown) [Compound C-3311, Methyl 1-(1-naphthylsulfonyl)aziridine-2-carboxylate], 90 µM; with `CCCCCCc1ccc(S(=O)(=O)N2CC2C(=O)NC)cc1` (stereo not shown) [Compound C-3380, 1-(4-Hexylphenyl)sulfonyl-N-methyl-aziridine-2-carboxamide], 37 µM.
With `CCCCCCCCCCCCc1ccc(S(=O)(=O)N2CC2C(=O)OC)cc1` (stereo not shown) [Compound C-3270, Methyl 1-(4-dodecylphenyl)sulfonylaziridine-2-carboxylate], the EC50 is above 200 µM.
On the same count and under the same terms, under `COC(=O)C1CN1S(=O)(=O)c1cccc(C)c1` (stereo not shown) [Compound C-3303, Methyl 1-(m-tolylsulfonyl)aziridine-2-carboxylate] stands above 200 µM; under `Cc1ccc(S(=O)(=O)N2CC2C(N)=O)cc1` (stereo not shown) [Compound C-3220, 1-(p-Tolylsulfonyl)aziridine-2-carboxamide], 22 µM.
The same measure, in the same setting: under `COC(=O)C1CN1S(=O)(=O)c1ccc(F)cc1F` (stereo not shown) [Compound C-3353, Methyl 1-(2,4-difluorophenyl)sulfonylaziridine-2-carboxylate] stands 143 µM.
As for `NC(=O)C1CN1S(=O)(=O)c1ccccc1` (stereo not shown) [Compound C-3532, 1-(Benzenesulfonyl)aziridine-2-carboxamide], the EC50 came to 9.3 µM.
With `COC(=O)C1CN1S(=O)(=O)c1ccc2[nH]c(=O)ccc2c1` (stereo not shown) [Compound C-3350, Methyl 1-[(2-oxo-1H-quinolin-6-yl)sulfonyl]aziridine-2-carboxylate], the EC50 is 48 µM.
For the molecule `COC(=O)C1CN1S(=O)(=O)c1ccc(C)cc1` (stereo not shown) [Compound C-3161, Methyl 1-(p-tolylsulfonyl)aziridine-2-carboxylate], the EC50 was 27 µM.
As to `CN(C)C(=O)C1CN1S(=O)(=O)c1ccc(C2CCCCC2)cc1` (stereo not shown) [Compound C-3384, 1-(4-Cyclohexylphenyl)sulfonyl-N,N-dimethyl-aziridine-2-carboxamide], the EC50 came out at 11.7 µM.
The same measure, in the same setting: under `CN(C)C(=O)C1CN1S(=O)(=O)c1ccc(F)cc1F` (stereo not shown) [Compound C-3403, 1-(2,4-Difluorophenyl)sulfonyl-N,N-dimethyl-aziridine-2-carboxamide] stands 24 µM; under `NC(=O)C1CN1S(=O)(=O)c1cccnc1` (stereo not shown) [Compound C-3562, 1-(3-pyridylsulfonyl)aziridine-2-carboxamide], 56 µM.
On to `CCOC(=O)C1CN1S(=O)(=O)c1ccc(C)cc1` (stereo not shown) [Compound C-3537, Ethyl 1-(p-tolylsulfonyl)aziridine-2-carboxylate], for which the EC50 was found to be 30 µM.
Still for that read-out and setting: under `COC(=O)[C@@H]1CN1S(=O)(=O)c1cccc2cc(N(C)C)ccc12` (stereo partly drawn) [Compound C-3548, Methyl (2S)-1-[[6-(dimethylamino)-1-naphthyl]sulfonyl]aziridine-2-carboxylate] stands 5.3 µM.
For the molecule `CC(=O)C1CN1S(=O)(=O)c1ccc(C)cc1` (stereo not shown) [Compound C-3263, 1-[1-(p-Tolylsulfonyl)aziridin-2-yl]ethanone], the EC50 is 98 µM.
Take `COC(=O)[C@H]1CN1S(=O)(=O)c1cccc2cc(N(C)C)ccc12` (stereo partly drawn) [Compound C-3570, Methyl (2R)-1-[[6-(dimethylamino)-1-naphthyl]sulfonyl]aziridine-2-carboxylate]: the EC50 was 68.4 µM.

Another data set deals with MCF-7. Nature of the data set: MTT antiproliferative assay, 48 h, MCF-7. It counts as cell-based, human. The conditions noted are these: Homo sapiens, MCF7, 48-hour exposition, read-out: Cytotoxicity, IC50, μM MCF-7. As to the method: Anticancer activity of compounds of invention, PDI A3-inhibitors has been tested in vitro in classical antiproliferative assay in various cancer cells lines. Monolayer tumor cell lines MDA-MB-231 (human mammary breast adenocarcinoma), MCF-7 (human breast adenocarcinoma, estrogen-positive), HT-1080 (human fibrosarcoma) and Caco-2 (human colon adenocarcinoma) were cultured in standard medium DMEM (Dulbecco's modified Eagle's medium) (“Sigma”) supplemented with 10% foetal bovine serum (“Sigma”). About 2000-4000 cells per well (depending on line nature) were placed in 96-well plates and after 24 h compounds were added to the wells. Untreated cells were used as a control. The plates were incubated for 48 h, 37° C., 5% CO2. The number of surviving cells was determined using 3-(4,5-dimethylthiazol-2-yl)-2,5-diphenyltetrazolinium bromide (MTT). MTT-test: after incubating culture medium was removed and 200 μL fresh medium with 20 μL MTT (2 mg/mL in HBSS) was added in each well of the plate. After incubation (3 hr., 37° C., 5% CO2), the medium with MTT was removed and 200 μL DMSO were added at once to each sample. The samples were tested at 540 nm on Thermo Scientific Multiskan EX microplate photometer. The half-maximal inhibitory concentration (IC50) of each compound was calculated using Graph Pad Prism® 3.0.
(Formazan colour is commonly taken as a measure of viable cells.)
Regarding `COC(=O)C1CN1S(=O)(=O)c1ccc(C(C)(C)C)cc1` (stereo not shown) [Compound C-3290, Methyl 1-(4-tert-butylphenyl)sulfonylaziridine-2-carboxylate], the concentration for half-maximal inhibition (IC50) – broadly, the concentration at which inhibition is half-maximal – is 29 ± 4 µM.
On the same count and under the same terms, with `CCCCCCc1ccc(S(=O)(=O)N2CC2C(=O)OC)cc1` (stereo not shown) [Compound C-3287, Methyl 1-(4-hexylphenyl)sulfonylaziridine-2-calboxylate] the figure was 123 ± 17 µM.
